According to patent publication US20110105397A1, “METHOD FOR TREATING HEART FAILURE WITH STRESSCOPIN-LIKE PEPTIDES” (priority 2009, published 2011):
Values joined by “and” are separate entries in the source; they are usually repeats but may differ in a detail not shown here. Equal values may be shown once. Read-outs that look alike come from different tables or passages of the source. Where a SMILES comes first, the peptide text is derived from it. Where no end group is shown, it is not given here. The star is where a group is joined. Succinimide(1-Et,3-yl) = CCN1C(=O)CC(*)C1=O

Molecular target: T1, human CRHR2 (Homo sapiens, UniProt Q13324)
T1 construct: expressed in transfected cells
T1 sequence (Q13324 1-411): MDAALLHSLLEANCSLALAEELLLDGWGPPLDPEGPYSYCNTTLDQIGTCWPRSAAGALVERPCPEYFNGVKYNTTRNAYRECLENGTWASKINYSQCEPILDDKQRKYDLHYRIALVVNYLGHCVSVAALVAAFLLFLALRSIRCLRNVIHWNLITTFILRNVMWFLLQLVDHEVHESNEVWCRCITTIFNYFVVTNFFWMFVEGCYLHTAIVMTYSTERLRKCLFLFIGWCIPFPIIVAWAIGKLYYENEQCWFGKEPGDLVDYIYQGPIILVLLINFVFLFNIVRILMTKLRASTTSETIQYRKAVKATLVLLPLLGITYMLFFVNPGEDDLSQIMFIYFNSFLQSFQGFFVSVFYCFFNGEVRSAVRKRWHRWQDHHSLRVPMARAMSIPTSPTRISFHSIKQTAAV
Test: cAMP assay, h-CRHR2 transfected SK-N-MC cells
Assay type: cell-based
Settings: for EC50: read-out: pA50 (converted); for Log DR [M]: h-SCP control pA50 minus test compound pA50 within the same assay batch; for αmax: normalized to the maximum response to h-SCP
Procedure: The concentration required for 50% maximum effect (A50) was 0.4 nM.
Human CRHR1 (accession number X72304) or CRHR2 (accession number U34587) were cloned into pcDNA3.1/Zeo expression vector and stably transfected into SK—N-MC cells by electroporation. Cells were maintained in MEM w/Earl's Salt with 10% FBS, 50 I.U. penicillin, 50 μg/ml streptomycin, 2 mM L-glutamine, 1 mM sodium pyruvate and 0.1 mM non-essential amino acids, 600 μg/ml G418. Cells were grown at 37° C. in 5% CO2
Cells were plated in 96-well tissue culture dishes (Biocoat from BD Biosciences) overnight at 50,000 cell/well. Cells were washed with PBS then resuspended in DMEM F-12 without phenol red, containing 10 μM isobutylmethylxanthine (IBMX). Cells were incubated with the peptides at concentrations ranging from 1 pM to 10 μM for 60 min at 37° Celsius. […] Forskolin (10 μM), a direct stimulant of adenylate cyclase, was used as positive control. The assays were stopped by the addition of 0.5 M HCl and mixing by orbital rotation for 2 h at 4° Celsius.
To assess the activity of the inventive polypeptide at the CRHR2, an intracellular cAMP measurement test using a Flash plate radioactive assay (Catalog No. Cus56088; Perkin Elmer, Mass., U.S.A.) was employed.
Transfected SK—N-MC cells were plated in 96-well Biocoat tissue culture dishes (BD Biosciences, San Jose, Calif., U.S.A) overnight at 50,000 cell/well. Cells were first washed with PBS and then suspended with DMEM/F-12 without phenol red, containing […]. Suspended cells were transferred into a 96-well flash plate coated with scintillant fluid. Cells were incubated with peptides ranging from 1 pM to 1 μM, for 60 min, at 37° Celsius. Forskolin at 10 μM was used as positive control. After ligand stimulation, cells were lysed by the addition of 0.5M HCl and mixed by orbital rotation for 2 h at 4° Celsius in order to release intracellular cAMP into the media.
Media containing released intracellular cAMP was transferred to a 96-well flash plate coated with scintillant fluid containing an anti-cAMP antibody. In this assay, intracellular cAMP competes with ^125I-labeled cAMP binding to the antibody. To generate a standard curve, cAMP ranging from 2.5 to 250 pmoles/ml was included in the experiment. [^125I]-cAMP was measured on a TopCount scintillation counter (Perkin Elmer, Mass., U.S.A).
Individual agonist concentration-response curve data were fitted to the Hill equation, see formula below, using GraphPad Prism (Graphpad Software, La Jolla, Calif., U.S.A.), to provide estimates of agonist concentration needed to generate one-half maximal response (A50), and the maximal asymptote (α) and Hill slope (nH) parameters. In this equation, [A] is the agonist concentration and E is the measured effect:
For display purposes the mean fitted parameter estimates were used to generate a single E/[A] curve shown superimposed on the mean experimental data. Potency estimates for agonists, pA50, are expressed as the negative logarithm of the midpoint of each curve and listed with their standard error of measurement (SEM). Logarithm base 10 of the agonist dose ratio (Log DR) values were calculated by subtraction of the test compound pA50 value from the corresponding h-SCP (SEQ ID NO:1) control pA50 value within the same assay batch. The SEM values of the Log DR values are given by the square root of the sum of the squared SEM values of the h-SCP (SEQ ID NO:1) control and test compound pA50 values.
Human and rat peptides (see Table 10) were used on the stimulation of h-CRHR1 or h-CRHR2 transfected SK—N-MC cells in the cAMP flash plate assay. Peptides were incubated for 1 hr at 37° Celsius. Curves were calculated using non-linear regression sigmoidal concentration-response analysis calculation in GraphPad Prism. The so obtained pA50 values are shown in Table 11 in addition to literature values. […]

[1] = Table 13, cysteine mutation, N-ethylmaleimide capping, pegylation
[2] = Table 12, amidation and N-terminal deletions, normalized to maximum response to h-SCP, 3-5 replicate experiments

| Compound | EC50 [1] [nM] | Log DR [M] (Table 13) | nH (Table 12) | EC50 [2] | αmax (Table 12) |
| --- | --- | --- | --- | --- | --- |
| CC[C@H](C)[C@H](NC(=O)[C@H](CCC(N)=O)NC(=O)[C@H](C)NC(=O)[C@H](CCSC)NC(=O)[C@H](CC(C)C)NC(=O)[C@H](Cc1c[nH]cn1)NC(=O)[C@H](C)NC(=O)[C@H](CC(N)=O)NC(=O)[C@H](C)NC(=O)[C@H](C)NC(=O)[C@H](C)NC(=O)[C@H](CCC(N)=O)NC(=O)[C@H](C)NC(=O)[C@H](CCCNC(=N)N)NC(=O)[C@H](CC(C)C)NC(=O)[C@H](CC(N)=O)NC(=O)[C@H](CCCCN)NC(=O)[C@H](C)NC(=O)[C@H](CCCCN)NC(=O)[C@H](C)NC(=O)[C@@H](NC(=O)[C@H](CC(N)=O)NC(=O)[C@H](Cc1ccccc1)NC(=O)[C@H](CC(C)C)NC(=O)[C@H](CSC1CC(=O)N(CC)C1=O)NC(=O)[C@H](CC(N)=O)NC(=O)[C@H](CCSC)NC(=O)[C@@H](NC(=O)[C@H](CC(N)=O)NC(=O)[C@@H](NC(=O)[C@@H]1CCCN1C(=O)[C@@H](NC(=O)[C@H](CC(=O)O)NC(=O)[C@H](CC(C)C)NC(=O)[C@H](CO)NC(=O)[C@H](CC(C)C)NC(=O)[C@@H](NC(=O)[C@H](Cc1ccccc1)NC(=O)[C@H](CCCCN)NC(=O)[C@@H](N)[C@@H](C)O)[C@@H](C)O)C(C)C)[C@@H](C)O)[C@@H](C)CC)[C@@H](C)CC)C(N)=O (stereo partly shown) [SEQ ID NO: 54, TKFTL SLDVP TNIMN C(-NES)LFNI AKAKN LRAQA AANAH LMAQI-NH2] (H-TKFTLSLDVPTNIMNC(Succinimide(1-Et,3-yl))LFNIAKAKNLRAQAAANAHLMAQI-NH2; N-terminus assumed) | 0.282 | −0.08 |  |  |  |
| TKFTLSLDVPTNICNLLFNIAKAKNLRAQAAANAHLMAQI-NH2 [SEQ ID NO: 15, TKFTLSLDVPTNICNLLFNIAKAKNLRAQAAANAHLMAQI-NH2] | 2.09 | 0.90 |  |  |  |
| TKFTLSLDVPTNIMNLLFNIACAKNLRAQAAANAHLMAQI-NH2 [SEQ ID NO: 23, TKFTLSLDVPTNIMNLLFNIACAKNLRAQAAANAHLMAQI-NH2] | 2.82 | 1.13 |  |  |  |
| TLSLDVPTNIMNLLFNIAKAKNLRAQAAANAHLMAQI-NH2 [SEQ ID NO: 108, TLSLDVPTNIMNLLFNIAKAKNLRAQAAANAHLMAQI-NH2] |  |  | 0.82 | 3.24 nM | 106.3 |
| TKFTLSLDVPTNIMNLLFCIAKAKNLRAQAAANAHLMAQI-NH2 [SEQ ID NO: 20, TKFTLSLDVPTNIMNLLFCIAKAKNLRAQAAANAHLMAQI-NH2] | 1 | 0.52 |  |  |  |
| H-TKFTLSLDVPTNIMNLLFNIAKAKNLRAQAACNAHLMAQI-NH2 [SEQ ID NO: 33, TKFTLSLDVPTNIMNLLFNIAKAKNLRAQAACNAHLMAQI-NH2] | 0.851 | 0.45 |  |  |  |
| H-TKFTLSLDVPTNIMNLLFNIAKAKNLRCQAAANAHLMAQI-NH2 [SEQ ID NO: 29, TKFTLSLDVPTNIMNLLFNIAKAKNLRCQAAANAHLMAQI-NH2] | 0.339 | 0.00 |  |  |  |
| TKFTCSLDVPTNIMNLLFNIAKAKNLRAQAAANAHLMAQI-NH2 [SEQ ID NO: 6, TKFTCSLDVPTNIMNLLFNIAKAKNLRAQAAANAHLMAQI-NH2] | 0.851 | 0.61 |  |  |  |
| TKFTLSLDVPCNIMNLLFNIAKAKNLRAQAAANAHLMAQI-NH2 [SEQ ID NO: 12, TKFTLSLDVPCNIMNLLFNIAKAKNLRAQAAANAHLMAQI-NH2] | 13.8 | 1.72 |  |  |  |
| LSLDVPTNIMNLLFNIAKAKNLRAQAAANAHLMAQI-NH2 [SEQ ID NO: 109, LSLDVPTNIMNLLFNIAKAKNLRAQAAANAHLMAQI-NH2] |  |  | 0.74 | 46.8 nM and 45.7 nM | 109.6 |
| CC[C@H](C)[C@H](NC(=O)[C@H](CCC(N)=O)NC(=O)[C@H](C)NC(=O)[C@H](CCSC)NC(=O)[C@H](CC(C)C)NC(=O)[C@H](Cc1c[nH]cn1)NC(=O)[C@H](C)NC(=O)[C@H](CC(N)=O)NC(=O)[C@H](C)NC(=O)[C@H](C)NC(=O)[C@H](C)NC(=O)[C@H](CCC(N)=O)NC(=O)[C@H](C)NC(=O)[C@H](CCCNC(=N)N)NC(=O)[C@H](CC(C)C)NC(=O)[C@H](CSC1CC(=O)N(CC)C1=O)NC(=O)[C@H](CCCCN)NC(=O)[C@H](C)NC(=O)[C@H](CCCCN)NC(=O)[C@H](C)NC(=O)[C@@H](NC(=O)[C@H](CC(N)=O)NC(=O)[C@H](Cc1ccccc1)NC(=O)[C@H](CC(C)C)NC(=O)[C@H](CC(C)C)NC(=O)[C@H](CC(N)=O)NC(=O)[C@H](CCSC)NC(=O)[C@@H](NC(=O)[C@H](CC(N)=O)NC(=O)[C@@H](NC(=O)[C@@H]1CCCN1C(=O)[C@@H](NC(=O)[C@H](CC(=O)O)NC(=O)[C@H](CC(C)C)NC(=O)[C@H](CO)NC(=O)[C@H](CC(C)C)NC(=O)[C@@H](NC(=O)[C@H](Cc1ccccc1)NC(=O)[C@H](CCCCN)NC(=O)[C@@H](N)[C@@H](C)O)[C@@H](C)O)C(C)C)[C@@H](C)O)[C@@H](C)CC)[C@@H](C)CC)C(N)=O (stereo partly shown) [SEQ ID NO: 49, TKFTLSLDVPTNIMNLLFNIAKAKC(-NES) LRAQA AANAH LMAQI-NH2] (H-TKFTLSLDVPTNIMNLLFNIAKAKC(Succinimide(1-Et,3-yl))LRAQAAANAHLMAQI-NH2; N-terminus assumed) | 0.437 | 0.11 |  |  |  |
| TKFTLSCDVPTNIMNLLFNIAKAKNLRAQAAANAHLMAQI-NH2 [SEQ ID NO: 8, TKFTLSCDVPTNIMNLLFNIAKAKNLRAQAAANAHLMAQI-NH2] | ~151 | 2.86 |  |  |  |
| TKFTLSLCVPTNIMNLLFNIAKAKNLRAQAAANAHLMAQI-NH2 [SEQ ID NO: 9, TKFTLSLCVPTNIMNLLFNIAKAKNLRAQAAANAHLMAQI-NH2] | 15.8 | 1.89 |  |  |  |
| H-TKFTLSLDVPTNIMCLLFNIAKAKNLRAQAAANAHLMAQI-NH2 [SEQ ID NO: 16, TKFTLSLDVPTNIMCLLFNIAKAKNLRAQAAANAHLMAQI-NH2] | 1.17 | 0.76 |  |  |  |
| TKFTLSLDVPTNIMNLLFNIAKAKNLRAQAAANACLMAQI-NH2 [SEQ ID NO: 36, TKFTLSLDVPTNIMNLLFNIAKAKNLRAQAAANACLMAQI-NH2] | 0.794 | 0.42 |  |  |  |
| TKCTLSLDVPTNIMNLLFNIAKAKNLRAQAAANAHLMAQI-NH2 [SEQ ID NO: 4, TKCTLSLDVPTNIMNLLFNIAKAKNLRAQAAANAHLMAQI-NH2] | 2.24 | 1.03 |  |  |  |
